The results in this text go back to patent US20250248979A1, “NOVEL GPX4 INHIBITORS AND USES THEREOF” (THE TRUSTEES OF COLUMBIA UNIVERSITY IN THE CITY OF NEW YORK, priority 2022, published 2025).

In one assay the target is T1, GPX4^U46C (Homo sapiens, UniProt P36969, U73C).
T1 construct: made in house; host or cells: E. coli BL21-Gold (DE3)
T1 sequence (P36969 1-170 isoform P36969-2 U46C): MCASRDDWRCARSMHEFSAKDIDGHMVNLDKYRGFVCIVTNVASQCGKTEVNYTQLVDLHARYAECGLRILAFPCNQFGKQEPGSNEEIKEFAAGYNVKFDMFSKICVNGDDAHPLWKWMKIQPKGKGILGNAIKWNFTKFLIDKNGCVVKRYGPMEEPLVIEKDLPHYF
The assay is described as follows: Microscale thermophoresis (MST) binding. The following applies: for EC50: half maximal effective concentration, covalent mechanism. On the procedure:
The bacterial expression vector pET-15b-His-tagged-c-GPX4^U46C was prepared as previously described (Yang et al. 2016). The C-terminal His-tagged GPX4U46C protein was expressed in E. coli and purified according to a protocol modified from Scheerer et al. 2007. First, pET-15b-His-tagged-c-GPX4^U46C was transformed into XL10-Gold (Agilent #200314) E. coli ultracompetent cells for plasmid DNA production and isolated using QIAprep Spin Miniprep Kit (Qiagen). For protein expression, pET-15b-His-tagged-c-GPX4^U46C was then transformed into BL21-Gold (DE3) E. coli competent cells (Agilent #230132) and plated on LB agar with 100 μg/mL ampicillin. A starter culture was inoculated in 7 mL of LB medium with 100 μg/mL ampicillin using a single colony and allowed to grow in a 37° C. shaker (225 rpm) for 16 hours. 3 mL of the starter culture was added to 1 L of LB medium with 100 μg/mL ampicillin, which was then incubated in a 37° C. shaker (225 rpm) to an OD600 of 0.9. At that point, the incubation temperature was reduced to 15° C. and the culture was allowed to equilibrate for 1 hour. Expression of the recombinant enzyme was induced by addition of isopropyl β-D-1-thiogalactopyranoside (IPTG, 1 mM final concentration) overnight for 12-15 hours shaking at 225 rpm and 15° C. The next morning, cells were harvested by centrifugation at 4000 rpm and 4° C. for 20 minutes. The cell pellet was then frozen at −80° C. for at least 1 hour or until lysis. To lyse the cells, the cell pellet was resuspended with 25 mL of chilled lysis buffer (100 mM Tris pH 8.0, 300 mM NaCl, 20 mM imidazole, 3 mM TCEP, and 2.5 mini tablets of complete Protease Inhibitor Cocktail (Roche-Sigma #11836170001)) then lysed using an Emulsiflex C3 high-pressure homogenizer. To remove cell debris, the lysate was subjected to centrifugation at 10000 rpm and 4° C. for 20 minutes. The supernatant was centrifuged once more at the same conditions, then the clarified lysate was applied onto a 5-mL HisTrap HP column (Cytiva #17-5248-01), washed with 90% Buffer A (100 mM Tris pH 8.0, 300 mM NaCl, 5% glycerol, 3 mM TCEP) 10% Buffer B (Buffer A with 500 mM imidazole), then eluted with a continuous gradient (10-100% Buffer B). The protein was concentrated using Amicon Ultra-15 centrifugal filter units with a 10 kDa molecule weight cutoff (EMD Millipore #UFC901024) then further purified by FPLC on a size exclusion HiLoad Superdex 200 column (Cytiva) in crystallization buffer (20 mM Tris pH 8.0, 300 mM NaCl, 3 mM TCEP). The fractions containing 90-95% pure GPX4 protein, as evaluated by SDS-PAGE, were pooled and concentrated using the same Amicon centrifugal filter units as above to 5 mg/mL. Concentration was determined by Nanodrop. Protein was aliquoted into Eppendorf tubes, flash frozen using liquid nitrogen, and stored at −80° C. until use.
MST experiments were conducted using a Monolith NT.115 (Nanotemper Technologies) according to manufacturer instructions. To label the protein, 90 μL of 200 nM GPX4^U46C was combined with 90 μL of 100 nM RED-tris-NTA dye diluted in PBS buffer with 0.05% Tween 20 (PBST buffer). The mixture was incubated for 30 minutes at room temperature, followed by centrifugation for 10 minutes at 4° C. and 15,000×g. To assess binding of the compounds, a 16-point 2-fold dilution series in PBST buffer was prepared and mixed in a 1:1 ratio with the labeled protein solution for a final volume of 20 μL. The reaction mixture was loaded into standard treated capillary tubes and analyzed with the Monolith NT.115 at 40% LED power and 40% MST power with a laser-on time of 5 seconds. The data were analyzed in MO.Affinity Analysis v2.3 software.

The next assay relates to HLF cells. The assay is described as follows: Cellular dose response assay, HLF. It is filed as cell-based, human. The source says:
(§1) HT-1080 (human [Homo sapiens] […] fibrosarcoma), A-673 (human [Homo sapiens] […] Ewing's sarcoma), and SK-HEP-1 (human [Homo sapiens] […] hepatic adenocarcinoma), cells were obtained from ATCC. Huh7 (human [Homo sapiens] […] hepatocellular carcinoma), HLF (human [Homo sapiens] […] hepatocellular carcinoma), HepG2 (human [Homo sapiens] […] hepatocellular carcinoma), cells were obtained from the Cancer Cell Bank at Columbia University Irving Medical Center. HT-1080, A-673, Huh-7, and HLF cells were grown in Dulbecco's Modified Eagle Medium (DMEM) supplemented with 10% heat inactivated fetal bovine serum (HI-FBS), 1% non-essential amino acids, and 1% penicillin streptomycin. HepG2 and SK-HEP-1 cells were grown in Eagle's Minimum Essential Medium (EMEM) supplemented with 10% HI-FBS, and 1% penicillin-streptomycin. All cells were cultured at 37° C. and 5% CO2.
(§2) HT-1080, HepG2, Huh7, HLF, and SK-HEP-1 cells were seeded into opaque white 384-well plates at 1500 cells per well then incubated at 37° C. with 5% CO2 overnight. The next day, compounds of interest were dissolved in DMSO and 12-point 2-fold dilution series were prepared with and without Fer-1. Cells were treated in triplicate (final DMSO concentration of 0.4% in all wells, including DMSO-only control wells) and incubated for a further 48 hours at 37° C. and 5% CO2. Cell viability was evaluated using CellTiter-Glo (Promega G7573) and luminescence was recorded on a Victor 5 plate reader. Data were analyzed in GraphPad Prism 9 and error bars represent standard deviation values for three technical replicates in a representative experiment.

Another assay relates to SK-HEP-1 cells. The assay is described as follows: Cellular dose response assay, SK-HEP-1. Format: cell-based, human.
Source text: as §1, §2

The mark [1] stands for this setting: compounds alone, Table 4, read-out: IC50 (uM) HLF^a.
Where [2] appears, read: with fer-1, Table 4, read-out: IC50 (uM) HLF^b.
Where [3] appears, read: compounds alone, Table 4, read-out: IC50 (uM) SKHEP1^a.
[4] abbreviates: with fer-1, Table 4, read-out: IC50 (uM) SKHEP1^b.

Like-named read-outs stand apart in the source and are kept apart here. Some results are limits rather than exact numbers.

Turning to `COc1cccc2[nH]c(C(=O)n3ccnc3)cc12` [LOC1886, reference compound], the Kd – broadly, the equilibrium constant for the complex coming apart – at GPX4^U46C (MST) is 263 µM. Further, the EC50 (as a rule, the concentration at which the effect is half-maximal) on GPX4^U46C is 263 µM.

Turning to `CC(C)(COC(=O)CCl)NC(=O)c1cc2ccccc2[nH]1` [QW-147], at GPX4^U46C, the EC50 was 2.4 µM. Besides, the IC50 (in general, the concentration that inhibits the measured activity by half) with HLF cells (setting [1]) was 98.7 µM; with HLF cells (setting [2]) it was 113 µM; in the assay with SK-HEP-1 cells (setting [3]) it was 24.1 µM; with SK-HEP-1 cells (setting [4]), 52.8 µM.

In turn, `CC(C)(COC(=O)CCl)NC(=O)c1cc2cc([N+](=O)[O-])ccc2[nH]1` [QW-148] had an EC50 at GPX4^U46C of 39.7 µM. Moreover, the IC50 came out at 16.6 µM in the assay with HLF cells (setting [1]), 28.7 µM in the assay with HLF cells (setting [2]), 10.1 µM with SK-HEP-1 cells (setting [3]) and 121 µM in the assay with SK-HEP-1 cells (setting [4]).

With `COc1ccc2cc(C(=O)NC(C)(C)COC(=O)CCl)[nH]c2c1` [QW-152], the EC50 at GPX4^U46C stood at 0.678 µM. The IC50 is 30 µM with HLF cells (setting [1]), 278 µM in the assay on HLF cells (setting [2]), 24.7 µM with SK-HEP-1 cells (setting [3]) and 340 µM in the assay on SK-HEP-1 cells (setting [4]).

`CC(C)(COC(=O)CCl)NC(=O)c1cc2ccc(Br)cc2[nH]1` [QW-156] came in with an EC50 at GPX4^U46C of 0.218 µM. In addition, the IC50 worked out at 13.4 µM in the assay with HLF cells (setting [1]), 34.3 µM with HLF cells (setting [2]), 13.7 µM in the assay on SK-HEP-1 cells (setting [3]) and 62.8 µM in the assay on SK-HEP-1 cells (setting [4]).

The compound `Cn1nc(C(=O)NC(C)(C)COC(=O)CCl)c2ccc(Br)cc21` [QW-314] gave a Kd on GPX4^U46C (MST) of 5.8 µM. Besides, the GI50 (usually the concentration giving 50% growth inhibition) in the assay with HLF cells (Homo sapiens, HLF) was ~1 µM. Besides, the IC50 in the assay with HLF cells (Homo sapiens, HLF, read-out: IC50 (uM) HLF^a) stood at 0.13 µM; in the assay on HLF cells (Homo sapiens, HLF, read-out: IC50 (uM) HLF^b), 80 µM; with SK-HEP-1 cells (Homo sapiens, SK-HEP1, read-out: IC50 (uM) SKHEP1^a), 10.8 µM; in the assay with SK-HEP-1 cells (Homo sapiens, SK-HEP1, read-out: IC50 (uM) SKHEP1^b), 106 µM.

At GPX4^U46C (MST), `COc1ccc(-c2ccc3c(C(=O)NC(C)(C)COC(=O)CCl)nn(C)c3c2)cc1Cl` [QW-446] displayed a Kd of 0.485 µM. At GPX4^U46C (MST, relative to RSL3), the “times more potent than RSL3 (binding affinity)” value is 15 times.

In the case of `COC(=O)c1ccc([C@@H]2c3[nH]c4ccccc4c3C[C@@H](C(=O)OC)N2C(=O)CCl)cc1` [RSL3, reference compound], the IC50 was 0.25 µM in the assay with HLF cells (setting [1]); 0.25 µM in the assay with HLF cells (compounds alone, Table 7, read-out: IC50 (uM) HLF^a); > 40 µM with HLF cells (setting [2]); > 40 µM in the assay on HLF cells (with fer-1, Table 7, read-out: IC50 (uM) HLF^b); 0.05 µM in the assay with SK-HEP-1 cells (setting [3]); 0.05 µM with SK-HEP-1 cells (compounds alone, Table 7, read-out: IC50 (uM) SKHEP1^a). The IC50 in the assay on SK-HEP-1 cells (setting [4]) was > 40 µM; with SK-HEP-1 cells (with fer-1, Table 7, read-out: IC50 (uM) SKHEP1^b) it was > 40 µM.
